Legend:
[1] = tested on: Hepatotoxicity;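 on HepSE Combined Scores: combined hepatic side effect score as listed in the training data of the Drug Induced Liver Injury Prediction System (DILIps)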;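 on HepSE bilirubinemia: bilirubinemia hepatic side effect score drawn from the DILIps training data, a prediction system for drug-induced liver injury; call rule not given here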;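 on HepSE cholelithiasis: hepatic side effect score for cholelithiasis, drawn from the DILIps training data for predicting drug-induced liver injury; call rule not given here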;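 on HepSE elevated liver function tests: hepatic side effect score for raised liver function tests, as recorded in the DILIps training set used for predicting drug-induced liver injury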;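 on HepSE hepatomegaly: hepatic side effect score for hepatomegaly, taken from the training set of the DILIps drug-induced liver injury prediction system; call rule not given here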;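 on HepSE jaundice: Jaundice-related hepatic side-effect score drawn from the training data of the DILIps (drug-induced liver injury prediction system); call rule not given here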
[2] = tested on: Hepatotoxicity; remark: listed apart in the source;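 on HepSE Combined Scores: combined hepatic side effect score as listed in the training data of the Drug Induced Liver Injury Prediction System (DILIps)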;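 on HepSE bilirubinemia: bilirubinemia hepatic side effect score drawn from the DILIps training data, a prediction system for drug-induced liver injury; call rule not given here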;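 on HepSE cholelithiasis: hepatic side effect score for cholelithiasis, drawn from the DILIps training data for predicting drug-induced liver injury; call rule not given here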;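 on HepSE elevated liver function tests: hepatic side effect score for raised liver function tests, as recorded in the DILIps training set used for predicting drug-induced liver injury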;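 on HepSE hepatomegaly: hepatic side effect score for hepatomegaly, taken from the training set of the DILIps drug-induced liver injury prediction system; call rule not given here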;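 on HepSE jaundice: Jaundice-related hepatic side-effect score drawn from the training data of the DILIps (drug-induced liver injury prediction system); call rule not given here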
[3] = tested on: Hepatotoxicity; remark: listed apart in the source;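 on HepSE Combined Scores: combined hepatic side effect score as listed in the training data of the Drug Induced Liver Injury Prediction System (DILIps)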;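 on HepSE bilirubinemia: bilirubinemia hepatic side effect score drawn from the DILIps training data, a prediction system for drug-induced liver injury; call rule not given here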;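 on HepSE cholelithiasis: hepatic side effect score for cholelithiasis, drawn from the DILIps training data for predicting drug-induced liver injury; call rule not given here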;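 on HepSE elevated liver function tests: hepatic side effect score for raised liver function tests, as recorded in the DILIps training set used for predicting drug-induced liver injury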;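 on HepSE hepatomegaly: hepatic side effect score for hepatomegaly, taken from the training set of the DILIps drug-induced liver injury prediction system; call rule not given here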;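 on HepSE jaundice: Jaundice-related hepatic side-effect score drawn from the training data of the DILIps (drug-induced liver injury prediction system); call rule not given here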
[4] = tested on: Hepatotoxicity; remark: listed apart in the source;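 on HepSE Combined Scores: combined hepatic side effect score as listed in the training data of the Drug Induced Liver Injury Prediction System (DILIps)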;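 on HepSE bilirubinemia: bilirubinemia hepatic side effect score drawn from the DILIps training data, a prediction system for drug-induced liver injury; call rule not given here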;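 on HepSE cholelithiasis: hepatic side effect score for cholelithiasis, drawn from the DILIps training data for predicting drug-induced liver injury; call rule not given here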;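 on HepSE elevated liver function tests: hepatic side effect score for raised liver function tests, as recorded in the DILIps training set used for predicting drug-induced liver injury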;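 on HepSE jaundice: Jaundice-related hepatic side-effect score drawn from the training data of the DILIps (drug-induced liver injury prediction system); call rule not given here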
[5] = tested on: Hepatotoxicity; remark: listed apart in the source
[6] = tested on: Hepatotoxicity; remark: listed apart in the source
[7] = tested on: Hepatotoxicity; remark: listed apart in the source
[8] = tested on: Hepatotoxicity; remark: listed apart in the source
[9] = tested on: Hepatotoxicity; remark: listed apart in the source
[10] = tested on: Hepatotoxicity; remark: listed apart in the source
[11] = tested on: Hepatotoxicity; remark: listed apart in the source
[12] = tested on: Hepatotoxicity; remark: listed apart in the source
[13] = tested on: Hepatotoxicity; remark: listed apart in the source
[14] = tested on: Hepatotoxicity; remark: listed apart in the source

SMILES	HepSE_elevated liver function tests [1]	HepSE_cholelithiasis [2]	HepSE_Combined Scores [3]	HepSE_jaundice [4]	HepSE_bilirubinemia [5]	HepSE_hepatomegaly [6]	HepSE_hepatic failure [7]	HepSE_cholecystitis [8]	HepSE_hepatitis [9]	HepSE_liver disease [10]	HepSE_hepatic necrosis [11]	HepSE_cirrhosis [12]	HepSE_liver function tests abnormal [13]	HepSE_liver fatty [14]	further results
O=C(O)CCCCCCCC(=O)O [AZELAIC ACID]	0	0	0	0	0	0	0	0	0	0	0	0	0	0	
CC(=O)O[C@@]12CO[C@@H]1C[C@H](O)[C@@]1(C)C(=O)[C@H](O)C3=C(C)[C@@H](OC(=O)[C@H](O)[C@@H](NC(=O)OC(C)(C)C)c4ccccc4)C[C@@](O)([C@@H](OC(=O)c4ccccc4)[C@H]21)C3(C)C.O.O.O [DOCETAXEL]	1	0	6	1	1	0	1	0	1	0	0	0	1	0	
CCN(CC)CCOC(=O)C1(C2CCCCC2)CCCCC1 [DICYCLOMINE]		0	0	0	0	0	0	0	0	0	0	0		0	HepSE_elevated liver function tests ([1]; Liver): 0; HepSE_liver function tests abnormal ([13]; Liver): 0
CCOC(=O)O[C@]1(C(=O)COC(=O)CC)CC[C@H]2[C@@H]3CCC4=CC(=O)C=C[C@]4(C)[C@H]3[C@@H](O)C[C@@]21C [PREDNICARBATE]	0	0	0	0	0	0	0	0	0	0	0	0	0	0	
Cc1ccsc1C(=CCCN1CCC[C@@H](C(=O)O)C1)c1sccc1C [TIAGABINE]	0	1	4	0	0	1	0	1	0	0	0	0	1	0	
C#CCN[C@@H]1CCc2ccccc21 [RASAGILINE]															HepSE_elevated liver function tests ([1]; Liver): 0; HepSE_cholelithiasis ([2]; Liver): 0; HepSE_Combined Scores ([3]; Liver): 2; HepSE_jaundice ([4]; Liver): 1; HepSE_bilirubinemia ([5]; Liver): 0; HepSE_hepatomegaly ([6]; Liver): 0; HepSE_hepatic failure ([7]; Liver): 0; HepSE_cholecystitis ([8]; Liver): 0; HepSE_hepatitis ([9]; Liver): 0; HepSE_liver disease ([10]; Liver): 0; HepSE_hepatic necrosis ([11]; Liver): 0; HepSE_cirrhosis ([12]; Liver): 0; HepSE_liver function tests abnormal ([13]; Liver): 1; HepSE_liver fatty ([14]; Liver): 0
C[C@]12CCC(=O)C=C1CC[C@@H]1[C@@H]2CC[C@@]2(C)[C@H]1CC[C@]2(C)O [METHYLTESTOSTERONE]	0	0	1	1	0	0	0	0	0	0	0	0	0	0	
C#CC1(O)CCC2C3CCC4=CC(=O)CCC4C3C(=C)CC21CC (configuration not stated) [IMPLANON]	0	0	0	0	0	0	0	0	0	0	0	0	0	0	
CC(=O)N[C@H]1[C@H](OCCCO)OC(C(=O)O)=C[C@@H]1O	0	0	0	0	0	0	0	0	0	0	0	0	0	0	
CN(C)c1cc(NC(=O)CNC(C)(C)C)c(O)c2c1C[C@H]1C[C@H]3[C@H](N(C)C)C(O)=C(C(N)=O)C(=O)[C@@]3(O)C(O)=C1C2=O [TIGECYCLINE]	0	0	4	1	1	0	1	0	0	0	0	0	1	0	
N[C@@H]1C[C@H]1c1ccccc1.N[C@H]1C[C@@H]1c1ccccc1 [TRANYLCYPROMINE]															HepSE_elevated liver function tests ([1]; Liver): 0; HepSE_cholelithiasis ([2]; Liver): 0; HepSE_Combined Scores ([3]; Liver): 1; HepSE_jaundice ([4]; Liver): 0; HepSE_bilirubinemia ([5]; Liver): 0; HepSE_hepatomegaly ([6]; Liver): 0; HepSE_hepatic failure ([7]; Liver): 0; HepSE_cholecystitis ([8]; Liver): 0; HepSE_hepatitis ([9]; Liver): 1; HepSE_liver disease ([10]; Liver): 0; HepSE_hepatic necrosis ([11]; Liver): 0; HepSE_cirrhosis ([12]; Liver): 0; HepSE_liver function tests abnormal ([13]; Liver): 0; HepSE_liver fatty ([14]; Liver): 0
C[C@]12C/C(=C/O)C(=O)C[C@@H]1CC[C@@H]1[C@@H]2CC[C@@]2(C)[C@H]1CC[C@]2(C)O [OXYMETHOLONE]	0	0	2	1	0	0	0	0	0	0	1	0	0	0	
O=C1C(O)=C([C@H]2CC[C@H](c3ccc(Cl)cc3)CC2)C(=O)c2ccccc21 [ATOVAQUONE]	0	0	2	0	0	0	1	0	1	0	0	0	0	0	

Reference: ChEMBL document CHEMBL1909294, “Translating clinical findings into knowledge in drug safety evaluation--drug induced liver injury prediction system (DILIps)” (PLoS Comput Biol, 2011)
